# In patent US20230172984A1, “CLEARANCE OF SENESCENT CELLS BY ACTIVATION OF iNKT CELLS” (THE REGENTS OF THE UNIVERSITY OF CALIFORNIA, priority 2020, published 2023):
# Test system: senescent preadipocytes (C12FDG^Hi) in eWAT of HFD mice
# Test: C12FDG flow cytometry assay (SA-βgal activity) on eWAT SVF of HFD mice
# Type: in vivo, mouse
# Conditions: HFD-fed mice treated with ABT-737 vs vehicle-treated controls
# Experimental: MATERIALS AND METHODS. Mouse husbandry. All procedures involving mice were performed according to the IACUC standards following ethics approval by the animal committee at the University of California, San Francisco. Male C57BL6/J on chow or HFD fed mice. HFD mice were fed a high-fat diet (60% kcal from fat) from 6 weeks until 22 weeks of age. All experiments on HFD mice were performed at 22-24 weeks total age (16-18 weeks on HFD). Age-matched male C57BL6/J mice on standard rodent chow diet were used as controls. For the lung injury model, 10-week-old male C57BL/6J mice were used. The animals were divided into three groups: the control group, the injured group, and the α-GalCer treated group. The animals in the control group received vehicle only (i.p.) on day 10. The injured group animals received bleomycin (3 U/kg) via the intratracheal route at the start of the experiment (day 0). The animals in the α-GalCer treated groups received bleomycin (3 U/kg) on day 0, and i.p. injection of α-GalCer (2 μg/mouse) on day 10. The animals in all the groups were sacrificed on day 14, and lungs were harvested for isolation of primary pulmonary Alveolar Type II cells (ATII) on the same day. For the hydroxyproline assay, mice were euthanized 21 days after injury.
# Epidydmal white adipose tissue stromal vascular fraction (eWAT SVF) isolation. eWAT SVF was isolated using standard protocols. Briefly, mice were euthanized, and epididymal fat pads were harvested, washed twice in D-PBS and minced. eWAT pads were digested with 1 U/ml Collagenase-D (Roche) in 1×HBSS containing 1% BSA (Sigma-Aldrich) for 1 hr at 37° C. Digested fat tissue was then strained twice through 100 μm strainers and neutralized with 30 ml of complete culture media (DMEM-F12 1:1, 10% FBS, 1×Penicillin-streptomycin). Samples were spun at 500 g for 5 minutes, shaken to resuspend the SVF pellet and then spun again. The resulting SVF pellet containing blood cells was lysed with ACKS buffer, washed in D-PBS and spun down. Total live SVF cells were counted using trypan blue and then used for various assays.
# C12FDG flow cytometry assay. eWAT SVF cells isolated and counted as described above were adjusted to 3×10^6 cells/ml in complete culture media and incubated with 33 μM C12FDG for 1 hr in a 37° C. water bath. Cells were then spun down at 500 g for 5 minutes, washed with Cell Staining buffer, and stained with anti-CD45-APC (clone 30F-11) and anti-CD31-PE-Cy7 (clone 390) each at a 1:200 dilution on ice for 30 minutes. Cells were then washed in Cell Staining buffer and resuspended in Cell Staining buffer containing 1×7-AAD. Samples were analyzed on an Attune acoustic focusing cytometer. Gates were set as follows: cells (FSC-A/SSC-A), forward scatter singlets (FSC-H/FSC-A), side-scatter singlets (SSC-H/SSC-A), live cells (7-AAD^−), non-immune cells (CD45^−), non-endothelial cells (CD31^−) and analyzed for C12FDG fluorescence. […] Data were analyzed with FlowJo (v. 10). For Lung, 1×10^6 cells from each sample were used to perform the assay. The cells were incubated with 66 μm of C12FDG in sterile DMEM containing DNase for 1 hour at 37° C. Following the incubation, the cells were washed with cell staining buffer, blocked with anti CD16/32 mouse monoclonal antibody (1:1000, prepared by the UCSF monoclonal antibody core), and stained with APC anti-mouse CD45 (1:400), and 7-AAD (1:1000). The gating strategy followed selected 7-AAD^−, CD45^−, and C12FDG^+ cells. […]
structure (smiles),measurement,setting,value
CN(C)CC[C@H](CSc1ccccc1)Nc1ccc(S(=O)(=O)NC(=O)c2ccc(N3CCN(Cc4ccccc4-c4ccc(Cl)cc4)CC3)cc2)cc1[N+](=O)[O-] [ABT-737],number of C12FDG^Hi cells in preadipocyte-enriched SVF population,FIG. 2C,reduced the number of C12FDG^Hi cells
same,relative number of C12FDG^Lo cells in preadipocyte-enriched SVF population,FIG. 2D,increased the relative number of C12FDG^Lo cells
